Data: PubChem BioAssay AID256 (DTP/NCI, 2004)
“And” between values parts separate entries of the source, which are not always exact repeats. Identical values can stand only once. Toxic doses and inconclusive results are not listed. Residues, ends and D or L forms follow the SMILES beside them. *: point of attachment. Cbz = O=C(OCc1ccccc1)*; Bn = c1ccc(C*)cc1; βAla = NCCC(=O)O

Test system: CD2F1 mice, L1210 leukemia ip, survival T/C
Assay: NCI In Vivo Anticancer Drug Screen. Data for tumor model L1210 Leukemia (intraperitoneal) in CD2F1 (CDF1) mice
Conditions: endpoint: mean survival time, higher = longer survival
Method in brief: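 Compound-dosed mice with transplantable tumor versus matched vehicle controls; endpoint ratio T/C reported.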

[1] = dose: 5.0 mg/kg/injection, schedule: Q01DX009 (ip), vehicle: saline with Tween-80
[2] = dose: 10.0 mg/kg/injection, schedule: Q01DX009 (ip), vehicle: saline with Tween-80
[3] = dose: 20.0 mg/kg/injection, schedule: Q01DX009 (ip), vehicle: saline with Tween-80
[4] = dose: 25.0 mg/kg/injection, schedule: Q01DX009 (ip), vehicle: saline with Tween-80
[5] = dose: 25.0 mg/kg/injection, schedule: Q04DX003 (ip), vehicle: saline with Tween-80
[6] = dose: 50.0 mg/kg/injection, schedule: Q01DX009 (ip), vehicle: saline with Tween-80
[7] = dose: 50.0 mg/kg/injection, schedule: Q04DX003 (ip), vehicle: saline with Tween-80
[8] = dose: 100.0 mg/kg/injection, schedule: Q01DX009 (ip), vehicle: saline with Tween-80
[9] = dose: 100.0 mg/kg/injection, schedule: Q04DX003 (ip), vehicle: saline with Tween-80
[10] = dose: 200.0 mg/kg/injection, schedule: Q04DX003 (ip), vehicle: saline with Tween-80
[11] = dose: 100.0 mg/kg/injection, schedule: Q04DX003 (ip), vehicle: saline
[12] = dose: 200.0 mg/kg/injection, schedule: Q04DX003 (ip), vehicle: saline
[13] = dose: 400.0 mg/kg/injection, schedule: Q04DX003 (ip), vehicle: saline
[14] = dose: 75.0 mg/kg/injection, schedule: Q01DX001 (ip), vehicle: saline
[15] = dose: 150.0 mg/kg/injection, schedule: Q01DX001 (ip), vehicle: saline
[16] = dose: 300.0 mg/kg/injection, schedule: Q01DX001 (ip), vehicle: saline
[17] = dose: 200.0 mg/kg/injection, schedule: Q01DX009 (ip), vehicle: saline with Tween-80
[18] = dose: 400.0 mg/kg/injection, schedule: Q01DX009 (ip), vehicle: saline with Tween-80
[19] = dose: 100.0 mg/kg/injection, schedule: Q01DX001 (ip), vehicle: saline
[20] = dose: 200.0 mg/kg/injection, schedule: Q01DX001 (ip), vehicle: saline
[21] = dose: 100.0 mg/kg/injection, schedule: Q01DX001 (ip), vehicle: saline with Tween-80
[22] = dose: 200.0 mg/kg/injection, schedule: Q01DX001 (ip), vehicle: saline with Tween-80
[23] = dose: 400.0 mg/kg/injection, schedule: Q04DX003 (ip), vehicle: saline with Tween-80
[24] = dose: 12.5 mg/kg/injection, schedule: Q01DX009 (ip), vehicle: saline with Tween-80
[25] = dose: 12.5 mg/kg/injection, schedule: Q04DX003 (ip), vehicle: saline with Tween-80
[26] = dose: 50.0 mg/kg/injection, schedule: Q04DX002 (ip), vehicle: saline with Tween-80

Compound: C/C=C\C[P+](c1ccccc1)(c1ccccc1)c1ccccc1
- T/C (dose: 5.0 mg/kg/injection, schedule: Q01DX001 (ip), vehicle: saline with Tween-80): 101 % of control
- T/C [1]: 102 % of control
- T/C (dose: 10.0 mg/kg/injection, schedule: Q01DX001 (ip), vehicle: saline with Tween-80): 104 % of control
- T/C [2]: 102 % of control
- T/C (dose: 20.0 mg/kg/injection, schedule: Q01DX001 (ip), vehicle: saline with Tween-80): 104 % of control
- T/C [3]: 122 % of control

Compound: CCOC(=O)c1cnc(=O)[nH]c1N
- T/C [4]: 101 % of control
- T/C [5]: 104 % of control
- T/C [6]: 104 % of control
- T/C [7]: 98 % of control
- T/C [8]: 96 % of control
- T/C [9]: 89 % of control and 100 % of control
- T/C [10]: 98 % of control

Compound: OCCN=Cc1c(Cl)ccc(Cl)c1Cl
- T/C [11]: 108 % of control
- T/C [12]: 101 % of control
- T/C [13]: 104 % of control

Compound: CCCCCC(C)NCCOC(=O)c1ccccc1 (stereo not given)
- T/C [14]: 103 % of control
- T/C [15]: 100 % of control
- T/C [16]: 108 % of control

Compound: Cc1ncc(C(=O)O)n1Cc1ccccc1
- T/C [8]: 94 % of control
- T/C [17]: 94 % of control
- T/C [18]: 92 % of control

Compound: O=C(O)c1ccc(C(=O)O)nc1
- T/C [19]: 87 % of control
- T/C [20]: 95 % of control
- T/C (dose: 400.0 mg/kg/injection, schedule: Q01DX001 (ip), vehicle: saline): 97 % of control

Compound: COC1=C(N=[N+]=[N-])C(=O)C(OC)=C(N=[N+]=[N-])C1=O
- T/C [1]: 101 % of control
- T/C (dose: 5.0 mg/kg/injection, schedule: Q04DX003 (ip), vehicle: saline with Tween-80): 93 % of control
- T/C [2]: 94 % of control
- T/C (dose: 10.0 mg/kg/injection, schedule: Q04DX003 (ip), vehicle: saline with Tween-80): 95 % of control
- T/C [3]: 94 % of control
- T/C (dose: 20.0 mg/kg/injection, schedule: Q04DX003 (ip), vehicle: saline with Tween-80): 95 % of control

Compound: c1cc[n+](CC[n+]2ccccc2)cc1
- T/C [11]: 102 % of control
- T/C [12]: 100 % of control
- T/C [13]: 111 % of control

Compound: CN(C)Cc1cc(O)cc(CN(C)C)c1O
- T/C (dose: 75.0 mg/kg/injection, schedule: Q01DX001 (ip), vehicle: other): 98 % of control
- T/C (dose: 150.0 mg/kg/injection, schedule: Q01DX001 (ip), vehicle: other): 96 % of control
- T/C (dose: 300.0 mg/kg/injection, schedule: Q01DX001 (ip), vehicle: other): 98 % of control

Compound: NCCc1nc(N)nc(N)c1-c1ccc(Cl)cc1
- T/C [21]: 103 % of control
- T/C [22]: 97 % of control

Compound: CC(C#N)CCCC#N (stereo not given)
- T/C [4]: 100 % of control
- T/C [6]: 102 % of control
- T/C [9]: 101 % of control

Compound: CCCOP(=S)(NCCOC)OCCC
- T/C [9]: 103 % of control
- T/C [10]: 101 % of control
- T/C [23]: 103 % of control

Compound: COC(=O)C(CSCc1ccccc1)NC(=O)C(CSCc1ccccc1)NC(=O)CCNC(=O)OCc1ccccc1 (stereo not given) ({Cbz-βAla}-Cys(Bn)-Cys(Bn)-OMe; configuration not given here)
- T/C (dose: 25.0 mg/kg/injection, schedule: Q01DX005 (ip), vehicle: water): 103 % of control
- T/C (dose: 50.0 mg/kg/injection, schedule: Q01DX005 (ip), vehicle: water): 98 % of control
- T/C (dose: 100.0 mg/kg/injection, schedule: Q01DX005 (ip), vehicle: water): 106 % of control
- T/C (dose: 200.0 mg/kg/injection, schedule: Q01DX005 (ip), vehicle: water): 103 % of control
- T/C (dose: 400.0 mg/kg/injection, schedule: Q01DX005 (ip), vehicle: water): 105 % of control

Compound: CNc1cccnc1/C=N/NC(N)=S
- T/C [24]: 104 % of control
- T/C [6]: 154 % of control
- T/C [8]: 162 % of control
- T/C [17]: 181 % of control
- T/C [18]: 90 % of control

Compound: N#C[S-].N#C[S-].[Au+3].[Au+3].[CH3-].[CH3-].[CH3-].[CH3-]
- T/C [9]: 96 % of control
- T/C [10]: 98 % of control

Compound: CCCC(=O)C1=C(O)C(CC2=C(O)C(C)(C)C(=O)C(C(=O)CCC)=C2O)=C(O)C(C)(C)C1=O
- T/C [19]: 98 % of control
- T/C [20]: 101 % of control

Compound: CC12CCCCC1SC(F)(F)C2(F)F (stereo not given)
- T/C [25]: 111 % of control
- T/C [5]: 88 % of control
- T/C [7]: 103 % of control

Compound: CC1CC1C(N)=O (stereo not given)
- T/C (dose: 50.0 mg/kg/injection, schedule: Q04DX002 (ip), vehicle: saline): 103 % of control
- T/C (dose: 100.0 mg/kg/injection, schedule: Q04DX002 (ip), vehicle: saline): 98 % of control and 102 % of control
- T/C (dose: 200.0 mg/kg/injection, schedule: Q04DX002 (ip), vehicle: saline): 98 % of control and 103 % of control
- T/C (dose: 400.0 mg/kg/injection, schedule: Q04DX002 (ip), vehicle: saline): 101 % of control and 104 % of control
- T/C (dose: 600.0 mg/kg/injection, schedule: Q04DX002 (ip), vehicle: saline): 98 % of control
- T/C (dose: 800.0 mg/kg/injection, schedule: Q04DX002 (ip), vehicle: saline): 100 % of control

Compound: COc1cc([N+](=O)[O-])c(C(=O)O)c(C(=O)O)c1OC
- T/C (dose: 12.5 mg/kg/injection, schedule: Q04DX002 (ip), vehicle: saline with Tween-80): 104 % of control
- T/C (dose: 25.0 mg/kg/injection, schedule: Q04DX002 (ip), vehicle: saline with Tween-80): 96 % of control
- T/C [26]: 104 % of control

Compound: O=C(NCCCl)NC1C(O)OC(CO)C(O)C1O (stereo not given)
- T/C (dose: 12.5 mg/kg/injection, schedule: Q01DX009 (ip), vehicle: water): 107 % of control
- T/C (dose: 25.0 mg/kg/injection, schedule: Q01DX009 (ip), vehicle: water): 107 % of control
- T/C (dose: 50.0 mg/kg/injection, schedule: Q01DX009 (ip), vehicle: water): 104 % of control
- T/C (dose: 100.0 mg/kg/injection, schedule: Q01DX009 (ip), vehicle: water): 104 % of control
- T/C (dose: 200.0 mg/kg/injection, schedule: Q01DX009 (ip), vehicle: water): 105 % of control

Compound: O=C1CCc2ccccc21 (tested in a mixture with another compound)
- T/C [26]: 96 % of control
- T/C (dose: 100.0 mg/kg/injection, schedule: Q04DX002 (ip), vehicle: saline with Tween-80): 101 % of control
- T/C (dose: 200.0 mg/kg/injection, schedule: Q04DX002 (ip), vehicle: saline with Tween-80): 96 % of control

Compound: NNC(=O)c1cccc(C(=O)NN)c1
- T/C [8]: 96 % of control
- T/C [9]: 93 % of control
- T/C [17]: 93 % of control
- T/C [10]: 95 % of control
- T/C [18]: 98 % of control
- T/C [23]: 92 % of control

Compound: Cc1[nH]c2cc([N+](=O)[O-])ccc2c1[N+](=O)[O-]
- T/C [14]: 97 % of control and 108 % of control
- T/C [15]: 103 % of control and 100 % of control
- T/C [16]: 93 % of control

Compound: O=C(O)c1ccc(Cl)cc1Nc1ccc(Cl)cc1
- T/C [25]: 97 % of control
- T/C [5]: 100 % of control
- T/C [7]: 107 % of control
- T/C [9]: 98 % of control

Compound: O=C1OCC/C1=C\c1cccc2ccccc12
- T/C [9]: 102 % of control
- T/C [10]: 96 % of control
- T/C [23]: 97 % of control

Compound: OC(C/C=C/c1ccccc1)(c1ccccc1)c1ccccc1
- T/C [8]: 93 % of control
- T/C [17]: 101 % of control
- T/C [18]: 96 % of control

Compound: C1CCC(CCCC(CCCC2CCCCC2)CCCC2CCCCC2)CC1
- T/C [21]: 94 % of control
- T/C [22]: 91 % of control
- T/C (dose: 400.0 mg/kg/injection, schedule: Q01DX001 (ip), vehicle: saline with Tween-80): 88 % of control

Compound: N#CCCc1ccccc1
- T/C (dose: 3.13 mg/kg/injection, schedule: Q01DX009 (ip), vehicle: saline with Tween-80): 97 % of control
- T/C (dose: 3.13 mg/kg/injection, schedule: Q04DX003 (ip), vehicle: saline): 92 % of control
- T/C (dose: 6.25 mg/kg/injection, schedule: Q01DX009 (ip), vehicle: saline with Tween-80): 94 % of control
- T/C (dose: 6.25 mg/kg/injection, schedule: Q04DX003 (ip), vehicle: saline): 89 % of control
- T/C [24]: 94 % of control
- T/C [25]: 106 % of control
- T/C (dose: 12.5 mg/kg/injection, schedule: Q04DX003 (ip), vehicle: saline): 92 % of control
- T/C [5]: 123 % of control
- T/C [7]: 92 % of control
